Experimental data: patent US9198879B2, “Pharmacologically optimized multimodal drug delivery system for nordihydroguiaretic acid (NDGA)” (Napo Pharmaceuticals, Inc., priority 2011, dated 2015)
Entries after “also recorded” stand apart in the source; their conditions may differ.

Legend:
[1] = First Phase I ascending single-dose study, NDGA concentrations in plasma after oral capsules; assay type: in vivo, human; details: for AUC0-last / Cmax / Tmax: capsule, healthy male volunteers
Protocol: (§1) The first Phase I study of NDGA was an ascending-dose, single-dose, single-blind (subject), placebo-controlled study conducted in healthy male volunteers between 18 and 45 years old. Fourteen subjects participated in up to 3 study periods, and 5 doses of NDGA were studied: 200, 400, 800, 1600, and 2000 mg. During each study period the subjects were monitored for safety for 72 hours following NDGA oral administration. Blood samples collected following NDGA administration were used to determine NDGA concentrations in plasma. […] The orally administered NDGA used in the study was contained in white, opaque, size 3 gelatin capsules. Each capsule contained 100 mg of NDGA.
The results for each of the five doses are depicted in FIGS. 4 to 8 corresponding to 200, 400, 800, 1600 and 2000 mg dosages, respectively.
The pharmacokinetic parameters of NDGA as observed in this experiment are given below in Table 1: […]

[2] = Phase I safety study, patients reporting adverse events; assay type: in vivo, human; details: n = 29
Protocol: as §1
The second Phase I study of NDGA was an open-label, randomized, two-period crossover study designed to determine if a high-fat meal affects the absorption of NDGA, and to provide preliminary information about possible gender differences in the pharmacokinetics of NDGA. A total of 16 healthy volunteers (8 men and 8 women), ranging in age from 19 to 48 years old, participated in this study. Each subject received an active NDGA dose under fasted conditions and another under fed conditions (the two study periods were separated by a 7-day washout period). Blood samples were collected immediately before and for 48 hours following NDGA administration and used for determination of plasma concentrations of NDGA. The NDGA used in the study was provided in white, opaque Size 0 gelatin capsules. Each capsule contained 250 mg of NDGA.

Fat/STZ rats = assay: Fat/STZ rat model, oral NDGA in CMC, PEG or Gelucire vehicles: glucose, triglycerides, FFA; assay type: in vivo; details: for glucose: versus 366+/−32; for glucose levels: 250 mg/kg twice daily
Protocol: In these studies, a variety of rodent models were used to evaluate the glucose-lowering properties and its effects on lipids, such as lowering of triglycerides. NDGA was administered orally to animals over a wide range of doses (10 to 350) mg/kg.
In this experiment, NDGA was dissolved in the following: • CMC: 0.25% carboxymethylcellulose • Gelucire: “Gelucire 44/14 (Gatefosse, Wildwood, N.J.; a well-defined mixture of mono-, di-, and tri-glycerides and mono- and di-fatty acid esters of polyethylene glycol) • PEG: 85% polyethylenene glycol, 10% tween and 5% propanediol
(§2) In this study, the following animal models where used: • Db/db mice: homozygous mice are a model of obesity, diabetes and dyslipedemia where their leptin receptor activity is deficient. • Ob/ob mice: obese mice with diabetes. • Db/lean mice: heterozygous mice that are not diabetic. • Fat/STZ rats: non-genetically diabetic overweight rats that are fed diets enriched in fat and made hyperglycemic by chemically removing their pancreatic function to reduce insulin production by treating them with streptozotocin (STZ). • Fructose/STZ rats: non-diabetic rats that are fed diets enriched in fructose and made hyperglycemic by treating them with STZ. • ZDF rats: obese and hyperglycemic rats with other metabolic disorders.
(§3) Baseline glucose and triglyceride concentrations, where appropriate, were measured for both diabetic and normal animals.

[3] = tested on: fructose-fed and fat-fed/STZ rat models; assay: NDGA versus metformin at equimolar doses in fructose-fed and fat-fed/STZ rat models; assay type: in vivo
Description: NDGA has been studied by administering it orally to animals to determine its effectiveness for lowering glucose, free fatty acid (FFA) and triglyceride levels. […] See Example 2 below. […] There was no significant baseline difference between the NDGA and metformin groups.
In one such study, the effects of NDGA and metformin as a control drug for treatment of diabetes were studied in a non-diabetic model of hypertriglyceridemia (fructose-fed) and a non-genetic, (i.e., streptozotocin (STZ) treated) model of diabetes. […] See FIGS. 2 (glucose) and 3 (triglycerides).

[4] = tested on: high fat diet-fed/STZ rat model; assay: Liver and muscle glycogen content after NDGA treatment; assay type: in vivo
Protocol: In the high fat diet-fed/STZ rat model, liver and muscle glycogen content was measured after treatment with NDGA versus vehicle. Treatment with NDGA had no effect on muscle glycogen levels when compared to control.

Db/db mice = assay: Glucose lowering in db/db mice; assay type: in vivo, mouse; details: db/db mice with diabetes, given orally
Description: as §2, §3

Ob/ob mice = assay: Glucose lowering in ob/ob mice; assay type: in vivo, mouse; details: ob/ob mice with diabetes, given orally
Description: as §2, §3

Fructose/STZ rats = assay: Triglyceride and FFA lowering in Fructose/STZ rats; assay type: in vivo, rat; details: fructose-fed/STZ rats
Description: as §2
These reductions in free fatty acid concentration could result from either decreased production (by reduced lipolysis) or increased removal of free fatty acids from the circulation by liver, fat or muscle.

cecum = details: in vivo; cited from earlier work
[5] = equimolar doses of NDGA or metformin

AUC0-last ([1]; 200 mg single oral dose): 66 +/− 26 ng-eq hr/ml | Cmax ([1]; 200 mg single oral dose): 32.6 +/− 15.3 ng-eq/ml | Tmax ([1]; 200 mg single oral dose): 1.3 ± 0.5 h | AUC0-last ([1]; 400 mg single oral dose): 385 +/− 90 ng-eq hr/ml | Cmax ([1]; 400 mg single oral dose): 69.1 +/− 51.6 ng-eq/ml | Tmax ([1]; 400 mg single oral dose): 1.8 ± 0.5 h | AUC0-last ([1]; 800 mg single oral dose): 591 +/− 252 ng-eq hr/ml | Cmax ([1]; 800 mg single oral dose): 120.3 +/− 66.3 ng-eq/ml | Tmax ([1]; 800 mg single oral dose): 1.8 ± 1.0 h | AUC0-last ([1]; 1600 mg single oral dose): 889 +/− 252 ng-eq hr/ml | Cmax ([1]; 1600 mg single oral dose): 189.3 +/− 65.7 ng-eq/ml | Tmax ([1]; 1600 mg single oral dose): 1.5 ± 0.6 h | AUC0-last ([1]; 2000 mg single oral dose): 1380 +/− 514 ng-eq hr/ml | Cmax ([1]; 2000 mg single oral dose): 187.6 +/− 106.0 ng-eq/ml | Tmax ([1]; 2000 mg single oral dose): 1.0 ± 0.0 h | Shape of concentration vs. time curves ([1]; all five doses, 200 to 2000 mg): unimodal (single peak) | Dose proportionality of peaks ([1]; increasing dose levels, 200 to 2000 mg): less than dose proportional | Elimination ([1]; oral capsule (immediate release), lower dose levels): rapid elimination
SMILES: CC(Cc1ccc(O)c(O)c1)C(C)Cc1ccc(O)c(O)c1 (stereo not shown) [NDGA, nordihydroguaiaretic acid]
Safety of each tested dose ([1]; 200, 400, 800, 1600 and 2000 mg single oral dose, monitored 72 hours): considered safe | Patients reporting adverse event: Abdominal pain ([2]; Body as a whole): 1 | Patients reporting adverse event: Asthenia ([2]; Body as a whole): 2 | Patients reporting adverse event: Headache ([2]; Body as a whole): 8 | Patients reporting adverse event: Neck rigidity ([2]; Body as a whole): 1 | Patients reporting adverse event: Pain ([2]; Body as a whole): 1 | Patients reporting adverse event: Syncope ([2]; Cardiovascular system): 1 | Patients reporting adverse event: Diarrhea ([2]; Digestive system): 2 | Patients reporting adverse event: Dyspepsia ([2]; Digestive system): 1 | Patients reporting adverse event: GI hemorrhage ([2]; Digestive system): 1 | Patients reporting adverse event: Increased appetite ([2]; Digestive system): 1 | Patients reporting adverse event: Vomiting ([2]; Digestive system): 1 | Patients reporting adverse event: Dizziness ([2]; Nervous system): 1 | Patients reporting adverse event: Hyperesthesia ([2]; Nervous system): 1 | Patients reporting adverse event: Increased coughing ([2]; Respiratory system): 1 | Patients reporting adverse event: Pharyngitis ([2]; Respiratory system): 1 | Patients reporting adverse event: Eye pain ([2]; Special senses): 1 | Patients reporting adverse event: Hematuria ([2]; Urogenital system): 1 | triglyceride levels (Fat/STZ rats; Fat/STZ rat, 40 mg/Kg once daily (QD), CMC delivery vehicle, 327 +/−25 without NDGA, no significant lowering): 270 ± 26 mg/dL | triglyceride levels (Fat/STZ rats; Fat/STZ rat, 40 mg/kg QD, Gelucire delivery vehicle, 674+/−84 without NDGA, significant lowering): 312 ± 38 mg/dL | glucose (Fat/STZ rats; Fat/STZ rat, 40 mg/kg QD, Gelucire vehicle): 299 ± 25 mg/dL | glucose (Fat/STZ rats; Fat/STZ rat, 250 mg/kg QD, Gelucire vehicle): 325 ± 26 mg/dL | triglyceride (Fat/STZ rats; Fat/STZ rat, 250 mg/kg QD, Gelucire vehicle, versus 674+/−84): 249 ± 42 mg/dL | glucose levels (Fat/STZ rats; Fat/STZ rat, Gelucire vehicle, 497+/−22 without NDGA, significant lowering): 380+/−28 | glucose levels (Fat/STZ rats; Fat/STZ rat, PEG delivery vehicle, 393+/−20 without NDGA, no significant lowering): 364+/−20 | glucose lowering (Fat/STZ rats; Fat/STZ rats, given orally): significantly lowers glucose | free fatty acid (FFA) concentrations (Fat/STZ rats; fat-fed/STZ rats): decreases free fatty acid (FFA) concentrations | plasma triglyceride lowering (Fat/STZ rats; fat-fed/STZ rats): significantly and dramatically lowered plasma triglycerides | glucose lowering (Fat/STZ rats; fat/STZ rat, single daily dose of 150 mg/kg): ineffective in lowering glucose | change in insulin concentrations [3, 5]: without changing insulin concentration; also recorded: without any change in insulin concentrations | glucose lowering in comparison to the vehicle control [3, 5]: significantly lowered glucose | triglyceride lowering in comparison to the vehicle control [3, 5]: significantly lowered triglycerides | lowering of triglyceride concentrations in comparison to vehicle ([3]; equimolar dosing with metformin): 80% | effect on muscle glycogen levels ([4]; compared to control): no effect | reduction of liver glycogen concentrations ([4]; versus vehicle): approximately 75% | glucose lowering (Db/db mice): significantly lowers glucose | glucose lowering (Ob/ob mice): significantly lowers glucose | free fatty acid (FFA) concentrations (Fructose/STZ rats): decreases free fatty acid (FFA) concentrations | plasma triglyceride lowering (Fructose/STZ rats): significantly and dramatically lowered plasma triglycerides | lesions in the cecum (cecum): known to cause lesions in the cecum
